# Source: article PMC10208956, “Microbial peptides activate tumour-infiltrating lymphocytes in glioblastoma” (Nature, 2023)
# Key:
# Format in all cases: cell-based, human
# [1] = tested on: bacteria/microbiota-reactive CFSEdim CD4+ TILs; test: Proliferation of expanded CFSEdim CD4+ TILs that responded to the bacteria/microbiota peptide pool; conditions: 5 days; 4 replicate wells; Fig. 4d
# [2] = tested on: bacteria/microbiota-reactive peripheral CD4+ T cells; test: Cytokine/chemokine secretion of selected peripheral CD4+ T cells in response to LRP6; parameters: IL-1a / IL-1ß / IL-2 / IL-3 / IL-4 / IL-5 / IL-6 / IL-7 / IL-10 / IL-13 / IL-15 / IL-17A / IL-33 / TNF-a: unit not given here
# [3] = tested on: CD45RA− peripheral T cells; test: Cytokine/chemokine secretion of unselected peripheral CD4+ T cells in response to LRP6; parameters: IL-1a / IL-1ß / IL-2 / IL-3 / IL-4 / IL-5 / IL-6 / IL-7 / IL-10 / IL-13 / IL-15 / IL-17A / IL-33 / TNF-a: unit not given here; conditions: Unselected CD45RA- PBMCs, sheet 6c (right panel)
# [4] = tested on: IPdBP-pre-stimulated peripheral memory CD4+ T cells; test: Cytokine/chemokine response of IPdBP-pre-stimulated peripheral memory CD4+ T cells; parameters: IL-1α / IL-1β / IL-2 / IL-3 / IL-4 / IL-5 / IL-6 / IL-7 / IL-10 / IL-13 / IL-15 / IL-17A / IL-33 / TNF-α: unit not given here
# [5] = Selected peripheral CD4+, sheet 6c (right panel)
# [6] = secretion by IPdBP-pre-stimulated peripheral memory CD4+ T cells
sequence,measurement,setting,value
HPFALTLFEDILY [LRP6],"recognition by CD4+ TILs pre-stimulated with the bacteria/microbiota peptide pool, by proliferation and/or GM-CSF secretion (in words)",[1],recognized
same,CCL2/MCP-1,[2]; [5],4526.33
same,CCL3/MIP-1a,[2]; [5],3125.42
same,CCL4/MIP-1ß,[2]; [5],4031.29
same,CCL11/Eotaxin,[2]; [5],4.67
same,CCL19/MIP-3ß,[2]; [5],6.3
same,CCL20/MIP-3a,[2]; [5],6.57
same,CD40 Ligand,[2]; [5],1738.81
same,CXCL1/GROa,[2]; [5],373.82
same,CXCL2/GROß,[2]; [5],350.46
same,CXCL8/IL-8,[2]; [5],2606.08
same,CXCL10/IP-10,[2]; [5],147.39
same,Flt-3 Ligand,[2]; [5],28.81
same,GM-CSF,[2]; [5],1627.51
same,Granzyme B,[2]; [5],2119.45
same,IFN-a,[2]; [5],1.01
same,IFN-γ,[2]; [5],159.02
same,IL-1a,[2]; [5],15.17
same,IL-1ra,[2]; [5],3794.38
same,IL-1ß,[2]; [5],23.43
same,IL-2,[2]; [5],10.94
same,IL-3,[2]; [5],107.37
same,IL-4,[2]; [5],4.49
same,IL-5,[2]; [5],283.76
same,IL-6,[2]; [5],167.44
same,IL-7,[2]; [5],0.7
same,IL-10,[2]; [5],475.26
same,IL-12p70,[2]; [5],16.63
same,IL-13,[2]; [5],400.29
same,IL-15,[2]; [5],2.76
same,IL-17A,[2]; [5],0
same,IL-17E/IL-25,[2]; [5],0
same,IL-33,[2]; [5],5.21
same,RANTES,[2]; [5],798.34
same,TNF-a,[2]; [5],1408.41
same,cytokine and chemokine production of selected peripheral CD4+ T cells (in words),"[2]; compared with the unselected cells, Extended Data Fig. 6c right",produced various cytokines and chemokines
same,CCL2/MCP-1,[3],0
same,CCL3/MIP-1a,[3],38350.7
same,CCL4/MIP-1ß,[3],1401.95
same,CCL11/Eotaxin,[3],0
same,CCL19/MIP-3ß,[3],0
same,CCL20/MIP-3a,[3],6.73
same,CD40 Ligand,[3],1116.41
same,CXCL1/GROa,[3],804.34
same,CXCL2/GROß,[3],0
same,CXCL8/IL-8,[3],0
same,CXCL10/IP-10,[3],0
same,Flt-3 Ligand,[3],15.31
same,GM-CSF,[3],488.27
same,Granzyme B,[3],0
same,IFN-a,[3],1.18
same,IFN-γ,[3],0
same,IL-1a,[3],104.35
same,IL-1ra,[3],0
same,IL-1ß,[3],600.74
same,IL-2,[3],0
same,IL-3,[3],1.65
same,IL-4,[3],0
same,IL-5,[3],0
same,IL-6,[3],20465.9
same,IL-7,[3],0.54
same,IL-10,[3],27.41
same,IL-12p70,[3],9.74
same,IL-13,[3],0
same,IL-15,[3],1.25
same,IL-17A,[3],0
same,IL-17E/IL-25,[3],0
same,IL-33,[3],7.76
same,RANTES,[3],0
same,TNF-a,[3],67.2
same,cytokine and chemokine profile of immunopeptidome-reactive peripheral CD4+ T cells (in words),[4]; Extended Data Fig. 7c,"secreted not only GM-CSF but also several other pro-inflammatory cytokines including IFNγ, TNF and granzyme B"
same,CCL2/MCP-1,[4]; [6],0
same,CCL3/MIP-1α,[4]; [6],3979.57
same,CCL4/MIP-1β,[4]; [6],19527
same,CCL11/Eotaxin,[4]; [6],3.84
same,CCL19/MIP-3β,[4]; [6],12.07
same,CCL20/MIP-3α,[4]; [6],17.43
same,CD40 Ligand,[4]; [6],4129.61
same,CXCL1/GROα,[4]; [6],0
same,CXCL2/GROβ,[4]; [6],123.27
same,CXCL8/IL-8,[4]; [6],3466.89
same,CXCL10/IP-10,[4]; [6],353.48
same,Flt-3 Ligand,[4]; [6],131.58
same,GM-CSF,[4]; [6],8661.95
same,Granzyme B,[4]; [6],7766.97
same,IFN-α,[4]; [6],8.01
same,IFN-γ,[4]; [6],1163.95
same,IL-1rα,[4]; [6],0
same,IL-1α,[4]; [6],19.6
same,IL-1β,[4]; [6],20.52
same,IL-2,[4]; [6],11.3
same,IL-3,[4]; [6],158.99
same,IL-4,[4]; [6],7.36
same,IL-5,[4]; [6],1023.08
same,IL-6,[4]; [6],217.73
same,IL-7,[4]; [6],2.53
same,IL-10,[4]; [6],4192.28
same,IL-12p70,[4]; [6],24.59
same,IL-13,[4]; [6],3507.83
same,IL-15,[4]; [6],4.26
same,IL-17A,[4]; [6],4.67
same,IL-17E/IL-25,[4]; [6],0
same,IL-33,[4]; [6],22.2
same,RANTES,[4]; [6],10050.3
same,TNF-α,[4]; [6],3505.52
"REFTKATNVRLRF [LAMA5, vaccine pool peptide from laminin subunit α5]","recognition by CD4+ TILs pre-stimulated with the bacteria/microbiota peptide pool, by proliferation and/or GM-CSF secretion (in words)",[1],recognized
